Assays:
[1] = test system: wheat; experiment: Test A postemergence; assay type: in vivo, Triticum aestivum
Summary of the method: (§1)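 Growth medium: loam soil blended with sand. Preemergence treatment used a directed soil spray right after planting; postemergence treatment targeted seedlings at one to two leaves (2–10 cm height). Response was judged by eye relative to untreated plants about 10 days later on a 0–100 control scale.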

[2] = test system: barnyardgrass; experiment: Test C flooded paddy test; assay type: in vivo, Echinochloa crus-galli; details: Flood
Summary of the method: (§2)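 Visual injury ratings against untreated controls, taken 13 to 15 days after compound was added to paddy water standing 3 cm above the soil.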

[3] = test system: ducksalad; experiment: Test C flooded paddy test; assay type: in vivo, Heteranthera limosa; details: Flood
Summary of the method: as §2

[4] = test system: morningglory; experiment: Test C preemergence; assay type: in vivo, Ipomoea coccinea
Summary of the method: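 Postemergence values come from plants sprayed at the 1- to 4-leaf stage (2–18 cm) in peat moss–vermiculite medium; preemergence values from seeds treated in a loam–sand blend. Both evaluated visually against controls after 13–15 greenhouse days, scale 0–100.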

[5] = test system: sedge, umbrella; experiment: Test C flooded paddy test; assay type: in vivo, Cyperus difformis; details: Flood
Summary of the method: as §2

[6] = test system: barnyardgrass; experiment: Test A preemergence; assay type: in vivo, Echinochloa crus-galli; details: for Barnyardgrass plant response rating (0 to 100 scale, 0 is no effect, 100 is complete control): visual injury approx. 10 days after treatment
Summary of the method: as §1

[7] = test system: rice; experiment: Test C flooded paddy test; assay type: in vivo, Oryza sativa; details: Flood
Summary of the method: as §2

[8] = Postemergence, 500 g ai/ha, visual rating after approx. 10 days, 0 to 100 scale (0 no effect, 100 complete control)
[9] = postemergence, 125 g ai/ha, about 10 days, visual rating on 0 to 100 scale (0 no effect, 100 complete control)
[10] = 31 g ai/ha, scale 0 to 100 (0 no effect, 100 complete control)
[11] = 62 g ai/ha, scale 0 to 100 (0 no effect, 100 complete control)
[12] = preemergence, 31 g ai/ha, visual rating, scale 0 to 100 (0 no effect, 100 complete control), 13 to 15 days
[13] = preemergence, 62 g ai/ha, scale 0 to 100 (0 no effect, 100 complete control), 13 to 15 days
[14] = preemergence, 125 g ai/ha, scale 0 to 100, 0 is no effect, 100 is complete control
[15] = preemergence, 125 g ai/ha, visual injury, 0 to 100 scale, approx. 10 days
[16] = preemergence, 500 g ai/ha, visual injury after approx. 10 days, 0 to 100 scale (0 no effect, 100 complete control)
[17] = Postemergence, 500 g ai/ha, 0 to 100 scale (0 no effect, 100 complete control)
[18] = 125 g ai/ha, scale 0 to 100 (0 no effect, 100 complete control)
[19] = preemergence, 125 g ai/ha, 13 to 15 days, scale 0 to 100, 0 = no effect, 100 = complete control

Structure (SMILES)	Wheat plant response rating [1, 8]	Wheat plant response rating [1, 9]	Plant response rating, Barnyardgrass [2, 10]	Plant response rating, Barnyardgrass [2, 11]	Plant response rating, Barnyardgrass ([2]; 125 g ai/ha, scale 0 to 100)	Plant response rating, Barnyardgrass ([2]; 250 g ai/ha, scale 0 to 100)	Plant response rating, Ducksalad [3, 10]	Plant response rating, Ducksalad [3, 11]	Plant response rating, Ducksalad ([3]; 125 g ai/ha, scale 0 to 100)	Plant response rating, Ducksalad ([3]; 250 g ai/ha, scale 0 to 100)	Plant response rating (scale of 0 to 100), Morningglory ([4]; Preemergence, 250 g ai/ha)	Morningglory plant response rating [4, 12]	Morningglory plant response rating [4, 13]	Plant response rating, Sedge, Umbrella [5, 10]	Plant response rating, Sedge, Umbrella [5, 11]	Plant response rating, Sedge, Umbrella ([5]; 250 g ai/ha, scale 0 to 100)	Barnyardgrass plant response rating [6, 16]	Plant response rating, Rice [7, 10]	Plant response rating, Rice [7, 11]	Plant response rating, Rice ([7]; 250 g ai/ha, scale 0 to 100)	other results
CCCNC(=O)c1cc(CC)n(Cc2nc(C(F)(F)F)nn2C)n1 [Compound 109]	80	50	0	0	35	40	30	40	75	85	100	95	100	30	60	85	100	0	0	35	Morningglory plant response rating [4, 14]: 100; Plant response rating, Sedge, Umbrella ([5]; 125 g ai/ha, scale 0 to 100): 75; Barnyardgrass plant response rating [6, 15]: 100; Plant response rating, Rice ([7]; 125 g ai/ha, scale 0 to 100): 20
CCONC(=O)c1cc(CC)n(Cc2cccc(OC(F)(F)F)c2)n1 [Compound 72]	80	70	0	20	20	20	0	70	75	75	85	–	–	50	60	65	–	0	0	30	Morningglory plant response rating ([4]; preemergence, 31 g ai/ha, scale 0 to 100 (0 no effect, 100 complete control), 13 to 15 days): 15; Plant response rating, Morningglory ([4]; preemergence, 62 g ai/ha, 13 to 15 days, scale 0 to 100, 0 = no effect, 100 = complete control): 65; Morningglory plant response rating [4, 14]: 85; Plant response rating, Sedge, Umbrella ([5]; 125 g ai/ha, scale 0 to 100): 65; Barnyardgrass plant response rating ([6]; Preemergence, 500 g ai/ha, 0 to 100 scale, 0 no effect, 100 complete control): 100; Barnyardgrass plant response rating [6, 15]: 90; Plant response rating, Rice ([7]; 125 g ai/ha, scale 0 to 100): 0
CCNC(=O)c1cc(CCF)n(Cc2ccnc(C(F)(F)F)c2)n1 [Compound 178]	–	0	0	0	–	20	0	30	–	90	–	35	95	0	0	80	100	0	0	20	Wheat plant response rating [1, 17]: 30; Plant response rating, Barnyardgrass [2, 18]: 0; Plant response rating, Ducksalad [3, 18]: 60; Plant response rating, Morningglory ([4]; Preemergence, 16 g ai/ha, scale 0 to 100): 15; Plant response rating, Morningglory [4, 19]: 100; Plant response rating, Sedge, Umbrella [5, 18]: 40; Barnyardgrass plant response rating (0 to 100 scale, 0 is no effect, 100 is complete control) ([6]; preemergence, 125 g ai/ha): 80; Plant response rating, Rice [7, 18]: 0
CCCc1cc(C(=O)NOC(C)C)nn1Cc1cc(C(F)(F)F)nn1C [Compound 203]	–	–	0	0	–	0	0	0	–	80	–	30	95	40	40	85	100	0	0	0	Wheat plant response rating ([1]; Postemergence, 125 g ai/ha, 0 to 100 scale, 0 no effect, 100 complete control): 70; Wheat plant response rating [1, 17]: 80; Plant response rating, Barnyardgrass [2, 18]: 0; Plant response rating, Ducksalad [3, 18]: 20; Plant response rating, Morningglory [4, 19]: 85; Morningglory plant response rating ([4]; preemergence, 250 g ai/ha, scale 0 to 100, 0 is no effect, 100 is complete control): 100; Plant response rating, Sedge, Umbrella [5, 18]: 70; Barnyardgrass plant response rating (0 to 100 scale, 0 is no effect, 100 is complete control) ([6]; preemergence, 125 g ai/ha): 80; Plant response rating, Rice [7, 18]: 0

From patent US20150105252A1, “SUBSTITUTED PYRAZOLES AS HERBICIDES” (E I DU PONT DE NEMOURS AND COMPANY, priority 2013, published 2015)
